Data on 15 compounds can be found in patent US20230399287A1, “NOVEL COMPOUNDS” (Sitryx Therapeutics Limited, priority 2020, published 2023).

Data set [1] has as its system IL-1β. The data set is described as follows: THP-1 AlphaLISA IL-1β cytokine assay. It counts as cell-based. Conditions: for IC50: Homo sapiens, THP-1, differentiated THP-1 cells, LPS 24 hr then Nigericin 1 hour. A digest of the protocol:
(§1)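 THP-1 cells differentiated with PMA for 72 h, pre-incubated with compound for 30 min, primed with LPS for 24 h, then given nigericin for 1 h at 37 °C. IL-1β and IL-6 in supernatants were read by AlphaLISA. % inhibition was set against ±LPS controls and IC50 taken from concentration–response curves.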

Data set [2] has as its system IL-6. Put plainly: THP-1 AlphaLISA IL-6 cytokine assay. The settings on record: for IC50: Homo sapiens, THP-1, differentiated THP-1 cells, LPS 24 hr then Nigericin 1 hour. It counts as cell-based. The method in brief: as §1
In general terms: Bead proximity is the source of the signal in Alpha formats.

Data set [3] relates to NRF2. The data set is described as follows: NRF2 +/- GSH activation assay (DiscoverX PathHunter NRF2 translocation kit). It counts as cell-based. The settings on record: for EC50: Homo sapiens, U2OS, U2OS PathHunter cells.
A short description of data set [4]: Hepatocyte stability assay (human). Type of data set: in vitro ADME. The settings on record: human, cryopreserved hepatocytes, 10 μM compound, 60 min, read-out: T½. A digest of the protocol:
(§2)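 Cryopreserved human or mouse hepatocytes (0.5×10^6 cells/mL in Leibovitz buffer) were incubated with 10 μM compound (0.1% DMSO) at 37° C in duplicate, alongside a buffer-only control. Samples taken from 0 to 60 min were analysed by LC-MS/MS. Half-life and Clint (μL min^−1 10^−6 cells) came from the ln % remaining versus time slope.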

Data set [5] relates to hepatocytes. The data set is described as follows: Hepatocyte stability assay (human). It counts as in vitro ADME. The settings on record: 10 μM compound, 60 min. The method in brief:
as §2

Data set [6] can be described thus: Hepatocyte stability assay (mouse). Type of data set: in vitro ADME. Conditions: mouse, cryopreserved hepatocytes, 10 μM compound, 60 min, read-out: T½. A digest of the protocol: as §2
Data set [7] has as its system hepatocytes. The data set is described as follows: Hepatocyte stability assay (mouse). The settings on record: 10 μM compound, 60 min. Type of data set: in vitro ADME. A digest of the protocol: as §2
The mark [8] stands for this setting: +GSH, normalised to dimethyl fumarate high control.
The mark [9] stands for this setting: −GSH, normalised to dimethyl fumarate high control.
[10] abbreviates: THP-1 cells, statement in words.

Usually IC50 stands for the point on the concentration scale where inhibition reaches its midpoint. A high value points to weaker potency in that assay. Usually Emax stands for the greatest response seen or fitted, relative to the assay's reference. In general, EC50 refers to the concentration that produces a half-maximal response.

Turning to `C=C(CC(=O)OC1(c2ccc(Cl)cc2)CCC1)C(=O)O` [Example 8, 4-(1-(4-chlorophenyl)cyclobutoxy)-2-methylene-4-oxobutanoic acid], the values for the IC50 in data set [1] and in data set [2] were 2.6 µM and 64.5 µM, respectively. The Emax in data set [3] (setting [8]) came to 0%; in data set [3] (setting [9]), 24%. For the same compound, the EC50 in data set [3] (+GSH) and in data set [3] (−GSH) was above 100 µM each time. The half-life at 10 μM in data set [4] turned out to be 2.07 h; in data set [6] it was 1.08 h. In addition, the Clint is 11 μL min^−1 10^−6 cells in data set [5] and 26 μL min^−1 10^−6 cells in data set [7].

With `C=C(CC(=O)OC1(c2ccc(C(F)(F)F)cn2)CC1)C(=O)O` [Example 58, 2-methylene-4-oxo-4-(1-(5-(trifluoromethyl)pyridin-2-yl)cyclopropoxy)butanoic acid], the IC50 in data set [1] is 3.2 µM; in data set [2] it was above 42.2 µM. The maximal response (Emax) was determined as 0% in data set [3] (setting [8]) and 1% in data set [3] (setting [9]). Moreover, the EC50 in data set [3] (+GSH) and in data set [3] (−GSH) was above 100 µM each time. Also, the half-life at 10 μM in data set [4] was 6.2 h; in data set [6], 5.45 h. Moreover, the Clint in data set [5] and in data set [7] was 5 μL min^−1 10^−6 cells throughout.

Turning to `C=C(CC(=O)OC(C)(C)c1ccc(C(F)(F)F)cc1)C(=O)O` [Example 2, 2-methylene-4-oxo-4-((2-(4-(trifluoromethyl)phenyl)propan-2-yl)oxy)butanoic acid], the figures for the IC50 in data set [1] and in data set [2] were 0.8 µM and above 63.1 µM, respectively. In addition, the Emax in data set [3] (setting [8]) and in data set [3] (setting [9]) was 0% each time. Moreover, the EC50 in data set [3] (+GSH) and in data set [3] (−GSH) was above 100 µM in each case. The half-life at 10 μM in data set [4] was determined as 2.83 h; in data set [6], 0.583 h. The Clint in data set [5] is listed as 8 μL min^−1 10^−6 cells; in data set [7] it was 35 μL min^−1 10^−6 cells.

On to `C=C(CC(=O)OC1(c2ccc(-c3ccc(C(F)(F)F)cc3)cc2)CCC1)C(=O)O` [Example 26, 2-methylene-4-oxo-4-(1-(4′-(trifluoromethyl)-[1,1′-biphenyl]-4-yl)cyclobutoxy)butanoic acid], for which the figures for the half-inhibitory concentration (IC50) in data set [1] and in data set [2] were 42 µM and 3.7 µM, respectively. The Emax is 34% in data set [3] (setting [8]) and 88% in data set [3] (setting [9]). Besides, the EC50 was above 100 µM in data set [3] (+GSH) and 24.1 µM in data set [3] (−GSH). The results for the half-life at 10 μM in data set [4] and in data set [6] were 0.1 h and below 0.05 h, respectively. Further, the Clint in data set [5] is recorded as 238 μL min^−1 10^−6 cells; in data set [7], above 460 μL min^−1 10^−6 cells.

As for `C/C(=C\C(=O)OC1(c2ccc(C(F)(F)F)cc2)CCC1)C(=O)O` [Example 21, (E)-2-methyl-4-oxo-4-(1-(4-(trifluoromethyl)phenyl)cyclobutoxy)but-2-enoic acid], the IC50 in data set [1] came to 7.3 µM; in data set [2], 49.7 µM. In addition, the figures for the Emax in data set [3] (setting [8]) and in data set [3] (setting [9]) were 4% and 0%, respectively. Further, the EC50 in data set [3] (+GSH) and in data set [3] (−GSH) was above 100 µM each time. The half-life at 10 μM in data set [4] turned out to be 0.917 h; in data set [6], 0.45 h. The Clint in data set [5] was 31 μL min^−1 10^−6 cells; in data set [7], 71 μL min^−1 10^−6 cells.

As to `C=C(CC(=O)OC1(c2ccc(C(F)(F)F)nn2)CCC1)C(=O)O` [Example 62, 2-methylene-4-oxo-4-(1-(6-(trifluoromethyl)pyridazin-3-yl)cyclobutoxy)butanoic acid], the 50% inhibitory concentration (IC50) was 5 µM in data set [1] and above 31.6 µM in data set [2]. The values for the Emax in data set [3] (setting [8]) and in data set [3] (setting [9]) were 4% and 1%, respectively. The EC50 in data set [3] (+GSH) and in data set [3] (−GSH) was above 100 µM each time. Also, the half-life at 10 μM was above 7.67 h in data set [4] and 7.23 h in data set [6]. The Clint in data set [5] is below 3 μL min^−1 10^−6 cells; in data set [7] it was 4 μL min^−1 10^−6 cells.

Take `C=C(CC(=O)OC1(c2ccc(C(F)(F)F)cc2)CC1)C(=O)O` [Example 11, 2-methylene-4-oxo-4-(1-(4-(trifluoromethyl)phenyl)cyclopropoxy)butanoic acid]: the IC50 was 1.4 µM in data set [1] and above 100 µM in data set [2]. Besides, the Emax in data set [3] (setting [8]) turned out to be 0%; in data set [3] (setting [9]), 11%. Moreover, the EC50 in data set [3] (+GSH) and in data set [3] (−GSH) was above 100 µM in each case. For the same compound, the results for the half-life at 10 μM in data set [4] and in data set [6] were 3.62 h and 1.18 h, respectively. Moreover, the Clint came out at 6 μL min^−1 10^−6 cells in data set [5] and 24 μL min^−1 10^−6 cells in data set [7].

With `C=C(CC(=O)OC1(c2ccc(SC(F)(F)F)cc2)CCC1)C(=O)O` [Example 9, 2-methylene-4-oxo-4-(1-(4-((trifluoromethyl)thio)phenyl)cyclobutoxy)butanoic acid], the concentration for half-maximal inhibition (IC50) in data set [1] was 2.8 µM; in data set [2] it was above 100 µM. For the same compound, the Emax in data set [3] (setting [8]) was 6%; in data set [3] (setting [9]), 14%. For the same compound, the EC50 in data set [3] (+GSH) and in data set [3] (−GSH) was above 100 µM throughout. The half-life at 10 μM in data set [4] was found to be 1.52 h; in data set [6], 0.633 h. Besides, the Clint is 15 μL min^−1 10^−6 cells in data set [5] and 44 μL min^−1 10^−6 cells in data set [7].

`C=C(CC(=O)OC1(c2ccc(C(F)(F)F)cc2)CCC1)C(=O)O` [Example 1, 2-methylene-4-oxo-4-(1-(4-(trifluoromethyl)phenyl)cyclobutoxy)butanoic acid]: the values for the IC50 in data set [1] and in data set [2] were 0.8 µM and 62 µM, respectively. For the same compound, in data set [1] (setting [10]), the “cytokine-lowering potencies for IL-1β compared to dimethyl itaconate, dimethyl fumarate and 4-octyl itaconate” value is on record as “much improved cytokine-lowering potencies”. For the same compound, the “cytokine-lowering potencies for IL-6 compared to dimethyl itaconate” value in data set [2] (setting [10]) is recorded as “improved cytokine-lowering potencies”. For the same compound, the Emax in data set [3] (+GSH, data from repeated experiments) came out at 14%; in data set [3] (setting [8]) it was 10%; in data set [3] (−GSH, data from repeated experiments), 17%; in data set [3] (setting [9]), 37%. Besides, the EC50 in data set [3] (+GSH) and in data set [3] (−GSH) was above 100 µM throughout. Besides, the half-life at 10 μM in data set [4] worked out at 1.93 h; in data set [6], 2.52 h. In addition, the Clint in data set [5] came to 11 μL min^−1 10^−6 cells; in data set [7], 13 μL min^−1 10^−6 cells.

As for `C=C(CC(=O)OC1(c2ccc(C(F)(F)F)cn2)COC1)C(=O)O` [Example 46, 2-methylene-4-oxo-4-(3-(5-(trifluoromethyl)pyridin-2-yl)oxetan-3-yloxy)butanoic acid], the results for the IC50 in data set [1] and in data set [2] were 4.1 µM and above 31.6 µM, respectively. Besides, the half-life at 10 μM in data set [4] and in data set [6] was above 7.67 h throughout. For the same compound, the Clint in data set [5] and in data set [7] was below 3 μL min^−1 10^−6 cells in each case.

Regarding `C=C(CC(=O)OC(C)(C)c1ccc(C(F)(F)F)cn1)C(=O)O` [Example 57, 2-methylene-4-oxo-4-((2-(5-(trifluoromethyl)pyridin-2-yl)propan-2-yl)oxy)butanoic acid], the half-maximal inhibitory concentration (IC50) is 6.6 µM in data set [1] and above 31.6 µM in data set [2]. In addition, the half-life at 10 μM in data set [4] was above 7.67 h; in data set [6], 2.52 h. Also, the Clint in data set [5] is listed as below 3 μL min^−1 10^−6 cells; in data set [7], 10 μL min^−1 10^−6 cells.

Take `C=C(CC(=O)OC1(c2ccc(Cl)cn2)CCC1)C(=O)O` [Example 51, 4-(1-(5-chloropyridin-2-yl)cyclobutoxy)-2-methylene-4-oxobutanoic acid]: the results for the half-maximal inhibitory concentration (IC50) in data set [1] and in data set [2] were 6.4 µM and above 31.6 µM, respectively. For the same compound, the half-life at 10 μM in data set [4] and in data set [6] was above 7.67 h throughout. Further, the Clint in data set [5] and in data set [7] was below 3 μL min^−1 10^−6 cells in each case.

In the case of `C=C(CC(=O)OC1(c2ccc(C(C)(F)F)cc2)CCC1)C(=O)O` [Example 19, 4-(1-(4-(1,1-difluoroethyl)phenyl)cyclobutoxy)-2-methylene-4-oxobutanoic acid], the IC50 in data set [1] is 1.2 µM; in data set [2], above 68.1 µM. In addition, the half-life at 10 μM in data set [4] was 7.45 h; in data set [6], 1.35 h. Moreover, the Clint in data set [5] amounted to 4 μL min^−1 10^−6 cells; in data set [7] it was 23 μL min^−1 10^−6 cells.

Turning to `C=C(CC(=O)OC1(c2ccc(C(F)(F)F)s2)CCC1)C(=O)O` [Example 32, 2-methylene-4-oxo-4-(1-(5-(trifluoromethyl)thiophen-2-yl)cyclobutoxy)butanoic acid], the IC50 was 5.2 µM in data set [1] and above 100 µM in data set [2]. For the same compound, the half-life at 10 μM in data set [4] was determined as 1.53 h; in data set [6] it was 1.27 h. Besides, the Clint in data set [5] is on record as 17 μL min^−1 10^−6 cells; in data set [7], 21 μL min^−1 10^−6 cells.

With `C=C(CC(=O)O[C@H](c1ccc(C(F)(F)F)cc1)C(F)(F)F)C(=O)O` [Example 34, (R)-2-methylene-4-oxo-4-(2,2,2-trifluoro-1-(4-(trifluoromethyl)phenyl)ethoxy)butanoic acid], the IC50 in data set [1] is 12.2 µM; in data set [2] it was above 31.6 µM. Besides, the half-life at 10 μM in data set [4] is 0.867 h; in data set [6], 0.433 h. Moreover, the Clint in data set [5] came out at 26 μL min^−1 10^−6 cells; in data set [7], 48 μL min^−1 10^−6 cells.
